Measured values: patent EP0117176A1, “Zinc salt of L-thiazolidine-4-carboxylic acid, its preparation, compositions containing it and its use” (PIERRE FABRE S.A., priority 1983, dated 1984)

Columns and labels:
Solubility = type: physicochemical; details: dans les solvants organiques
Source text: Solubilité : Soluble dans l'eau à 1 %. Insoluble dans les solvants organiques.

[1] = Antioxidant power: peroxide index during oxidation of linoleic acid (method of CARNAT and POURRAT, linoleic acid instead of linseed oil)
Method: La mesure du pouvoir antioxydant est effectuée selon la méthode décrite par CARNAT et POURRAT (Ann. Pharm. Fr. 1979, 37, n° 3-4, p. 119-124) en remplaçant l'huile de lin par de l'acide linoléique. L'oxydation de l'acide linoléique est suivie chaque jour par une mesure de l'indice de péroxyde Ip.
Dans un flacon contenant l'acide linoléique, on ajoute 15 ml de CHCl3, 20 ml d'acide acétique RP puis 1 ml de solution aqueuse saturée de IK. On agite une minute et on laisse reposer le flacon 5 minutes à l'obscurité.
A près voir ajouté 100 ml d'eau, on dose l'iode libéré par du thiosulfate de sodium 0,01 N.

lipase = assay: Antilipase power: inhibition of hydrolysis of glycerol tributyrate by lipase; type: biochemical; details: substrate tributyrate de glycérol
Method: Le milieu d'incubation témoin ne contient que des acides gras estérifiés (tributyrate de glycérol).
L'ajout de lipase dans le milieu entraîne l'hydrolyse du tributyrate de glycérol.
L'incorporation de L-thiazolidine-4 carboxylate de zinc avant l'adjonction de lipase empêche la libération d'acide butyrique. Les résultats obtenus sont regroupés dans le tableau suivant : […]

[2] = Local tolerance on shaved flank; type: in vivo; details: 5 cobayes albinos adultes; application three times a week for two weeks on shaved flank
Source text: La tolérance a été recherchée sur 5 cobayes albinos adultes.

Substance: L-thiazolidine-4 carboxylate de zinc
- Solubilité (Solubility): Insoluble
- Indice de péroxydes ([1]; Temps 0 h): 0,91
- Indice de péroxydes ([1]; Temps 24 h): 12,7
- Indice de péroxydes ([1]; Temps 48 h): 25.2
- % d'inhibition mesuré (lipase; 5 mg): 52%
- % d'inhibition mesuré (lipase; 10 mg): 71,5%
- Tolérance locale [2]: aucune réaction
